Experimental data reported in patent US20150004134A1, “TREATMENT OF CANCER WITH HETEROCYCLIC INHIBITORS OF GLUTAMINASE” (Calithera Biosciences, Inc., priority 2012, published 2015).
Where two headings read alike, the source gives them in different places.

Tests used:
[1] = biological target: T1, recombinant form of Glutaminase 1 (GAC) (Homo sapiens, UniProt O94925); assay: Recombinant Enzyme Assay - Time Dependence (60 min preincubation); format: biochemical
T1 sequence (O94925 137-598 isoform O94925-3 limits assumed): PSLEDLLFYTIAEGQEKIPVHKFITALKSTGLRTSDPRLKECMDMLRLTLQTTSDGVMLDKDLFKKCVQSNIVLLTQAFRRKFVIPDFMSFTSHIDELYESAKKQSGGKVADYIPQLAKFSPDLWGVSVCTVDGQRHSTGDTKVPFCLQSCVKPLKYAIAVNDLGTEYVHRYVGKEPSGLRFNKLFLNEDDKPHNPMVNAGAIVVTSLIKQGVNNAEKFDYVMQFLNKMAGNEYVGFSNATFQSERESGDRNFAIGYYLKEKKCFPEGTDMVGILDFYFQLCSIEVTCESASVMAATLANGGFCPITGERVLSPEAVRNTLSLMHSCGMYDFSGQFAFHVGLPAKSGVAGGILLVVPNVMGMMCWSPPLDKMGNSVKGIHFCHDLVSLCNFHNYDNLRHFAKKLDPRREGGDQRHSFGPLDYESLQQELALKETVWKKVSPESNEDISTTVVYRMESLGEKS
Method: The enzyme/compound mix was sealed with sealing foil (USA Scientific) and allowed to incubate, with mild agitation, for 60 minutes at 20° C. Enzymatic reaction was started with the addition of 50 μL of substrate solution (50 mM Tris-HCl pH 8.0, 0.2 mM EDTA, 150 mM K2HPO4, 0.1 mg/ml BSA, 1 mM DTT, 20 mM L-glutamine, 2 mM NAD^+, and 10 ppm antifoam) and read in a Molecular Devices M5 plate reader at 20° C. The plate reader was configured to read absorbance (=340 nm) in kinetic mode for 15 minutes. Data was recorded as milli-absorbance units per minute and slopes were compared to a control compound and a DMSO-only control on the same plate. Compounds with slopes less than the DMSO control were considered inhibitors and plate variability was assessed using the control compound.

P493-6 (myc "on") cells = assay: Cell Proliferation Assay; format: cell-based; conditions: P493-6, 72 h, read-out: Cell prolif P493 72 h IC50, P493-6 cells, 72 h
In short: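 P493-6 cells with myc on, 10,000 per well in RPMI/10% FBS, exposed to serially diluted compound (0.5% DMSO final) for 72 h at 37 °C, 5% CO2. Antiproliferative effect read by Cell Titer Glo luminescence or Viacount FACS viability count.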

[2] = read-out: GAC Delta N2 IC50 60 min preinc

Structure (SMILES)	IC50 [1, 2] [nM]	IC50 (P493-6 (myc "on") cells) [nM]	IC50 [1] [nM]
CC(C)(C)NC(=O)Cc1cccc(CC(=O)Nc2nnc(CCCCc3ccc(NC(=O)Cc4ccccc4)nn3)s2)c1 [Compound 495]	5	14	
CC(O)c1cccc(CC(=O)Nc2ccc(CCCCc3nnc(NC(=O)Cc4cccc(OC(F)(F)F)c4)s3)nn2)c1 (stereo not shown) [Compound 597]	5	17	
CC(C)CNC(=O)Cc1cccc(CC(=O)Nc2ccc(CCCCc3nnc(NC(=O)Cc4ccccc4)s3)nn2)c1 [Compound 517]		46	3
COc1cccc(C(OC(=O)CCN2CCOCC2)C(=O)Nc2nnc(CCCCc3ccc(NC(=O)Cc4ccccc4)nn3)s2)c1 (stereo not shown) [Compound 404]	60	22	
CN(C)CC(=O)Nc1cccc(CC(=O)Nc2nnc(CCCCc3ccc(NC(=O)Cc4ccccc4)nn3)s2)c1 [Compound 457]	9	110	
CCOC(=O)NC(C)c1cccc(CC(=O)Nc2nnc(CCCCc3ccc(NC(=O)Cc4ccccc4)nn3)s2)c1 (stereo not shown) [Compound 562]	3	2	
O=C(Cc1cccc(Cl)c1)Nc1ccc(CCCCc2nnc(NC(=O)Cc3cccc(OC(F)(F)F)c3)s2)nn1 [Compound 618]	8	35	
O=C(Cc1ccccc1Cl)Nc1ccc(CCCCc2nnc(NC(=O)Cc3ccccc3Cl)s2)nn1 [Compound 565]	5	13	
CCCCNC(=O)Cc1cccc(CC(=O)Nc2ccc(CCCCc3nnc(NC(=O)Cc4ccccc4)s3)nn2)c1 [Compound 516]		28	3
COc1ccccc1CC(=O)Nc1nnc(CCCCc2ccc(NC(=O)Cc3ccccc3F)nn2)s1 [Compound 532]	6	59	
CC(C)(C)OC(=O)NCc1cccc(CC(=O)Nc2nnc(CCCCc3ccc(NC(=O)C(C)(CO)CO)nn3)s2)c1 [Compound 530]	55	280	
CCCCN(C)C(=O)Cc1cccc(CC(=O)Nc2nnc(CCCCc3ccc(NC(=O)Cc4ccccc4)nn3)s2)c1 [Compound 483]	4	9	
O=C(Cc1ccccc1)Nc1ccc(CCCCc2nnc(NC(=O)Cc3cccc(CNC(=O)c4ccc(Br)nn4)c3)s2)nn1 [Compound 475]	2	3	
O=C(Cc1ccccc1)Nc1ccc(CCCCc2nnc(NC(=O)Cc3cccc(CC(=O)N4CCCC4)c3)s2)nn1 [Compound 473]	2	6	
CN(Cc1cccc(CC(=O)Nc2nnc(CCCCc3ccc(NC(=O)Cc4ccccc4)nn3)s2)c1)C(=O)Cc1ccccc1 [Compound 444]	3	8	
CC(C)(C)OC(=O)NC(C)(C)c1cccc(CC(=O)Nc2nnc(CCCCc3ccc(NC(=O)Cc4ccccc4)nn3)s2)c1 [Compound 630]	4	9	
CS(=O)(=O)NCc1cccc(CC(=O)Nc2nnc(CCCCc3ccc(NC(=O)Cc4ccccc4)nn3)s2)c1 [Compound 452]	4	49	
CS(=O)(=O)CCCOc1cccc(CC(=O)Nc2nnc(CCCCc3ccc(NC(=O)Cc4ccccc4)nn3)s2)c1 [Compound 583]	5	42	
Cc1nccn1Cc1cccc(CC(=O)Nc2ccc(CCCCc3nnc(NC(=O)Cc4ccccc4)s3)nn2)c1 [Compound 518]		63	4
CC(N)c1cccc(CC(=O)Nc2ccc(CCCCc3nnc(NC(=O)C(C)c4ccccc4)s3)nn2)c1 (stereo not shown) [Compound 619]		150	13
CC(C)(O)COc1cccc(CC(=O)Nc2nnc(CCCCc3ccc(NC(=O)Cc4ccccc4)nn3)s2)c1 [Compound 482]	7	38	
O=C(Cc1ccccc1)Nc1ccc(CCCCc2nnc(NC(=O)Cc3ccc(F)c(O)c3)s2)nn1 [Compound 538]	4	30	
O=C(Cc1cccc(Cn2cccn2)c1)Nc1ccc(CCCCc2nnc(NC(=O)Cc3ccccc3)s2)nn1 [Compound 500]	4	29	
O=C(Cc1ccccc1)Nc1ccc(CCCCc2nnc(NC(=O)Cc3cccc(Cn4cccn4)c3)s2)nn1 [Compound 395]	4	15	
O=C(Cc1cccc(OCC(F)(F)F)c1)Nc1ccc(CCCCc2nnc(NC(=O)Cc3ccccc3)s2)nn1 [Compound 667]	4	110	

Structure (SMILES)	IC50 [1, 2] [nM]	IC50 (P493-6 (myc "on") cells) [nM]	IC50 [1] [nM]
COc1ccccc1CC(=O)Nc1nnc(CCCCc2ccc(NC(=O)Cc3ccccc3)nn2)s1 [Compound 469]	7	49	
CCCCS(=O)(=O)Cc1cccc(CC(=O)Nc2ccc(CCCCc3nnc(NC(=O)Cc4ccccc4)s3)nn2)c1 [Compound 645]	2	15	
CC(=O)Nc1ccc(CCCCc2nnc(NC(=O)Cc3cccc(CNC(=O)Cc4ccccc4)c3)s2)nn1 [Compound 462]	6	53	
CC(O)c1cccc(CC(=O)Nc2nnc(CCCCc3ccc(NC(=O)Cc4ccccc4)nn3)s2)c1 (stereo not shown) [Compound 593]	5	33	
CC(=O)Nc1ccc(CCCCc2nnc(NC(=O)Cc3cccc(CNC(=O)c4ccccc4)c3)s2)nn1 [Compound 460]	5	31	
O=C(Cc1ccccc1)Nc1ccc(CCCCc2nnc(NC(=O)Cc3cccc(OC4COC(c5ccccc5)OC4)c3)s2)nn1 (stereo not shown) [Compound 506]	10	170	
CCCCS(=O)(=O)Cc1cccc(CC(=O)Nc2nnc(CCCCc3ccc(NC(=O)Cc4ccccc4)nn3)s2)c1 [Compound 644]		13	3
CC(C)CNC(=O)COc1cccc(CC(=O)Nc2ccc(CCCCc3nnc(NC(=O)Cc4ccccc4)s3)nn2)c1 [Compound 647]	4	18	
O=C(Cc1ccccc1)Nc1ccc(CCCCc2nnc(NC(=O)Cc3cccc(OCC(F)(F)F)c3)s2)nn1 [Compound 665]	5	100	
COC(=O)NC(C)c1cccc(CC(=O)Nc2ccc(CCCCc3nnc(NC(=O)C(C)c4ccccc4)s3)nn2)c1 (stereo not shown) [Compound 601]	6	36	
CC(C)(C)C(=O)NCc1cccc(CC(=O)Nc2nnc(CCCCc3ccc(NC(=O)Cc4ccccc4)nn3)s2)c1 [Compound 564]	4	2	
O=C(Cc1ccccc1Cl)Nc1ccc(CCCCc2nnc(NC(=O)Cc3ccccc3)s2)nn1 [Compound 521]	6	52	
CCNC(=O)OC(C)c1cccc(CC(=O)Nc2nnc(CCCCc3ccc(NC(=O)Cc4ccccc4)nn3)s2)c1 (stereo not shown) [Compound 592]	4	11	
CCOC(=O)c1ccc(CC(=O)Nc2nnc(CCCCc3ccc(NC(=O)Cc4ccccc4)nn3)s2)cc1OCC [Compound 588]	8	270	
CCOc1cccc(CC(=O)Nc2nnc(CCCCc3ccc(NC(=O)Cc4ccccc4)nn3)s2)c1 [Compound 488]	320	1900	
CC(CO)(CO)C(=O)NCc1cccc(CC(=O)Nc2nnc(CCCCc3ccc(NC(=O)Cc4ccccc4)nn3)s2)c1 [Compound 581]	11	240	
NCCc1cccc(CC(=O)Nc2nnc(CCCCc3ccc(NC(=O)Cc4ccccc4)nn3)s2)c1 [Compound 441]	11	180	
O=C(Cc1cccc(OCCCO)c1)Nc1ccc(CCCCc2nnc(NC(=O)Cc3ccccc3)s2)nn1 [Compound 539]	9	45	
CC(C)(C)OC(=O)NCc1ccc(CC(=O)Nc2nnc(CCCCc3ccc(NC(=O)Cc4ccccc4)nn3)s2)cc1 [Compound 401]	5	11	
O=C(Cc1ccccc1)Nc1ccc(CCCCc2nnc(NC(=O)Cc3c(F)cccc3F)s2)nn1 [Compound 443]	11	100	
CN1CCN(C(=O)c2cccc(CC(=O)Nc3nnc(CCCCc4ccc(NC(=O)Cc5ccccc5)nn4)s3)c2)CC1 [Compound 490]	11	250	
CC(C(=O)Nc1nnc(CCCCc2ccc(NC(=O)Cc3ccccc3)nn2)s1)c1cccc(C(=O)c2ccccc2)c1 (stereo not shown) [Compound 587]	7	57	
CCOC(=O)Cc1cccc(CC(=O)Nc2nnc(CCCCc3ccc(NC(=O)Cc4ccccc4)nn3)s2)c1 [Compound 456]	3	24	
O=C(Cc1ccccc1)Nc1ccc(CCCCc2nnc(NC(=O)Cc3ccc(F)c(Cl)c3)s2)nn1 [Compound 549]	6	45	
CC(O)c1cccc(CC(=O)Nc2ccc(CCCCc3nnc(NC(=O)C(C)c4ccccc4)s3)nn2)c1 (stereo not shown) [Compound 595]	7	59	
